For one data set, the system named is InsR (insulin-receptor). Nature of the data set: Insulin receptor mRNA in OHSC (RT-qPCR). Format: cell-based, mice. As to conditions: 50 μM for 10 days, P<0.05. Here is the method: (§1) FIG. 12. Plots illustrating the effect of Aftin-5 on relative mRNA expression levels of murine insulin-like growth factor-1 receptor (IGF1-R; (A)) and murine insulin receptor (Insr; (B)) in organotypic hippocampal slice cultures (OHSC). OHSC culture media of OHSC were replaced by incubation medium containing Aftin-5 (50 μM; A50) or vehicle (0.1% DMSO; Veh). 10 days later, total mRNA in lysate was isolated and purified, cDNAs were then synthesized from […] of total mRNA. cDNAs were amplified by quantitative RT-PCR and the relative expression of specific genes was normalized to the housekeeping gene HPRT1 (2^−ΔCt) Mann-Whitney tests were performed and *p<0.05 indicates significant differences between Aftin-5 and control conditions. Data expressed as means+/−SEM from q=3 independent experiments with n=4-6 inserts/condition and 10 slices/insert. […]
(§2) The impact of Aftin-5 on gene expression of different biomarkers was determined by measuring mRNA levels of selected BDNF, CREB, PS95, INS Receptor/IGF-1 receptor, IL-1β, IL-6 in OHSC treated chronically with Aftin-5 or in a total brain from mice exposed to Aftin-5 at either 8 or 30 mg/Kg. […] Threshold cycles (Ct) of target gene and cyclophilin A (Ppia−control housekeeping gene) were recorded and gene expression was calculated as 2^−ΔΔCt(ΔΔCt=ΔCttreated−ΔCtcontrol, ΔCt=Cttarget−CtPpia). […]

For data set [1], the system named is short-term memory (working memory). Nature of the data set: Y-maze spontaneous alternation test. Format: in vivo, C57Bl/6J mice. As to conditions: WT mice, 8 mg/kg subcutaneous, 28 days. Here is the method:
FIG. 13. Plots illustrating the effect of Aftin-5 on short-term memory (working memory) in Y maze. C57B1/6J mice were exposed sub-cutaneously to Aftin-5 at 8 mg/kg (A8) or vehicle (DMSO/PEG; Veh) during 28 days through an Alzet pump. 3-4 weeks later, cognitive abilities were assessed by the means of the total number of arm entries (A) and the percentage of alternation (B). Mann-Whitney tests were performed and **p<0.01 indicates significant differences between Aftin-5 and control conditions. Data expressed as means+/−SEM with n=15 mice/condition. The spontaneous alternation test (Y maze) is a test to evaluate the short-term memory (working memory) of the animal. This test is carried out in a Y-maze with arms customized by different forms; squares (A), triangles (B) and lines (C). The mouse is placed in one of the arms for 8 min. In this test, the mouse is free to explore spontaneously the three arms of the Y-maze (FIG. 1). During the session, the number of entries of each arm of the Y-maze is counted. At the end of the session, the number of possibility (number of total entries in the arms) and the number of spontaneous alternation are calculated. An alternation is defined by consecutive entries in the three different arms (A-B-C). A mouse with a normal phenotype will tend to explore the novelty. […]

Data set [2] in a line: Brain and plasma exposure after chronic subcutaneous administration (Alzet osmotic pump). Format: in vivo, C57Bl/6J mice. As to conditions: C57Bl/6J, mouse, sc, 30 mg/kg, 28 days, mice, read-out: brain/plasma partition coefficient (Kpbrain/plasma). Here is the method:
FIG. 5. Plots illustrating the effect of brain and plasma exposure after chronic subcutaneous administration of Aftin-5 to C57B16J mice. Due to short Aftin-5 elimination half-time, C57B1/6J mice were exposed subcutaneously to Aftin-5 (30 mg/kg) or vehicle (DMSO/PEG) during 28 days through an Alzet osmotic pump (pump 1004, Q=0.14 μL/hrs). Plasma was collected at different time points and 28 days after, both brain tissue and plasma were collected. Aftin-5 were extracted and quantified by LC-MS/MS (Quattro Premier). Aftin-5 concentrations in plasma (A) and brain (B) were expressed in nM. Data expressed as means+/−SEM from one experiment with n=4-5 mice/condition.
C57B1 were exposed subcutaneously to Aftin-5 using osmotic minipumps ([…]; Saint-Germain-Nuelles, France). Aftin-5 was dissolved in DMSO:propylene glycol:ethanol (45:45:10). Mice were treated with 1, 3 or 30 mg/Kg for 28 days. Filled pumps were left in saline overnight at 37° C. for priming. Mice were anesthetized with isoflurane (3-4% v/v, 1.5 mL/min) in an induction chamber and maintained under anesthesia through a mask. Mice were shaved on their back, disinfected and an incision made between the scapulae for pump implantation and finally closed with clips. 1% lidocaine gel was applied over the incision for local analgesia. Animals recovered from anesthesia in heated pads and immediately returned to the cages.

Data set [3] deals with IGF-1R (insulin growth factor receptor 1). In words: IGF-1R mRNA in OHSC (RT-qPCR). As to conditions: 50 μM for 10 days, P=0.0845. The format is cell-based, mice. Here is the method:
as §1, §2
A general note: Quantitative PCR measures a nucleic acid by following its amplification.

As for `CC[C@H](CO)Nc1nc(N(C)c2ccccc2)c2ncn(C(C)C)c2n1` [Aftin-5], the InsR-mRNA result with InsR (insulin-receptor) was “increased dramatically”. The “spatial memory in Y-maze” value in data set [1] is “improved spatial memory”. The Kp at 672 h in data set [2] is about 0.44. Also, in data set [3], the “IGF-1R mRNA” value is reported as “tend to increase”.
